Measurements taken from doi:10.1101/2022.06.29.498063v1, “Molecular basis for the pheromone-mediated feeding preference of early-instar Mythimna separata larvae” (biorxiv, 2022).

Biological target: T1, MsGOBP2 (Mythimna separata, UniProt A0A5H2NB15)
T1 construct: recombinant, pColdII vector, E. coli TransB, Ni-NTA purified, expression tag removed with enterokinase
T1 sequence (A0A5H2NB15 22-162): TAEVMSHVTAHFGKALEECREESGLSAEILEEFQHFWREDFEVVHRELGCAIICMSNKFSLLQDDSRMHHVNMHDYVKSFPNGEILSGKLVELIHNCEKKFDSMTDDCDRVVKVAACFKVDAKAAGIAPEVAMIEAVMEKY
Assay: direct fluorescence titration with the probe
Type: binding
Details: 2 μM protein; protein dialyzed in 10 mM PBS pH 7.4; excitation 337 nm

Question: `c1ccc(Nc2cccc3ccccc23)cc1` [1-NPN] was tested. Which K1-NPN did it give?
Answer: yielding the dissociation constants between the two proteins and 1-NPN (K1-NPN)
